From the CheMixHub viscosity set
Where “and” joins values, the source holds several entries; their conditions need not be identical. Equal values may be shown once. ± gives the uncertainty stated by the source.

Assay: xn = mol fraction of the nth substance listed

COCCOCCOC + CCOC(=O)CCC(=O)OCC
viscosity [mPa·s], 101.33 kPa
Conditions | x1 = 0.1002 | x1 = 0.2023 | x1 = 0.3012 | x1 = 0.4033 | x1 = 0.5032 | x1 = 0.6024 | x1 = 0.7034 | x1 = 0.801 | x1 = 0.9025
298.15 K | 2.198 ± 0.027 | 2.009 ± 0.025 | 1.843 ± 0.023 | 1.681 ± 0.021 | 1.535 ± 0.019 | 1.412 ± 0.018 | 1.296 ± 0.016 | 1.187 ± 0.015 | 1.077 ± 0.014
303.15 K | 1.951 ± 0.024 | 1.792 ± 0.022 | 1.65 ± 0.02 | 1.513 ± 0.019 | 1.386 ± 0.017 | 1.283 ± 0.016 | 1.184 ± 0.015 | 1.086 ± 0.014 | 0.994 ± 0.013
308.15 K | 1.737 ± 0.022 | 1.599 ± 0.02 | 1.476 ± 0.018 | 1.355 ± 0.017 | 1.251 ± 0.016 | 1.163 ± 0.015 | 1.082 ± 0.014 | 0.997 ± 0.013 | 0.92 ± 0.012
313.15 K | 1.559 ± 0.02 | 1.438 ± 0.018 | 1.33 ± 0.017 | 1.229 ± 0.016 | 1.139 ± 0.014 | 1.061 ± 0.014 | 0.989 ± 0.013 | 0.919 ± 0.012 | 0.852 ± 0.011
318.15 K | 1.406 ± 0.018 | 1.299 ± 0.016 | 1.206 ± 0.015 | 1.115 ± 0.014 | 1.034 ± 0.013 | 0.969 ± 0.013 | 0.908 ± 0.012 | 0.849 ± 0.011 | 0.792 ± 0.01

ClC(Cl)C(Cl)Cl + CCCC(=O)OCC
viscosity [mPa·s], 101.3 kPa
Conditions | 308.15 K | 318.15 K
x2 = 0.0477 | 1.326 ± 0.01 | 1.209 ± 0.009
x2 = 0.1018 | 1.243 ± 0.01 | 1.135 ± 0.009
x2 = 0.2004 | 1.11 ± 0.009 | 1.019 ± 0.008
x2 = 0.2603 | 1.04 ± 0.008 | 0.957 ± 0.008
x2 = 0.3965 | 0.906 ± 0.007 | 0.837 ± 0.007
x2 = 0.4979 | 0.824 ± 0.007 | 0.764 ± 0.006
x2 = 0.6073 | 0.753 ± 0.006 | 0.699 ± 0.006
x2 = 0.6955 | 0.701 ± 0.006 | 0.652 ± 0.006
x2 = 0.8023 | 0.649 ± 0.006 | 0.605 ± 0.005
x2 = 0.9007 | 0.61 ± 0.005 | 0.569 ± 0.005
x2 = 0.9705 | 0.585 ± 0.005 | 0.547 ± 0.005

CNc1ccccc1 + CS(C)=O
303 K, 101.33 kPa
Conditions | viscosity [mPa·s]
x1 = 0.101 | 1.844 ± 0.047
x1 = 0.2001 | 1.861 ± 0.047
x1 = 0.3007 | 1.939 ± 0.049
x1 = 0.3986 | 2.046 ± 0.052
x1 = 0.4987 | 2.03 ± 0.051
x1 = 0.6003 | 2.106 ± 0.053
x1 = 0.6987 | 2.12 ± 0.054
x1 = 0.8007 | 2.057 ± 0.052
x1 = 0.9015 | 1.911 ± 0.049

O=S(=O)([O-])[O-].[Li+].[Li+] + O
Conditions | viscosity
293.15 K, 101 kPa, x1 = 0.007256 | 1.26 ± 0.03 mPa·s
293.15 K, 101 kPa, x1 = 0.01412 | 1.55 ± 0.03 mPa·s
293.15 K, 101 kPa, x1 = 0.02103 | 1.89 ± 0.04 mPa·s
293.15 K, 101 kPa, x1 = 0.02766 | 2.31 ± 0.05 mPa·s
293.15 K, 101 kPa, x1 = 0.03404 | 2.82 ± 0.06 mPa·s
293.15 K, 101 kPa, x1 = 0.04479 | 4.02 ± 0.09 mPa·s
293.15 K, 101 kPa, x1 = 0.05103 | 5.05 ± 0.11 mPa·s
293.15 K, 101 kPa, x1 = 0.05234 | 5.28 ± 0.11 mPa·s
293.15 K, 101 kPa, x1 = 0.05329 | 5.47 ± 0.12 mPa·s
293.15 K, 101 kPa, x1 = 0.05449 | 5.71 ± 0.12 mPa·s
298.15 K, 101 kPa, x1 = 0.007256 | 1.12 ± 0.02 mPa·s
298.15 K, 101 kPa, x1 = 0.00868 | 1.152 ± 0.029 mPa·s and 1.152 ± 0.067 mPa·s
298.15 K, 101 kPa, x1 = 0.01412 | 1.38 ± 0.03 mPa·s
298.15 K, 101 kPa, x1 = 0.02103 | 1.69 ± 0.04 mPa·s
298.15 K, 101 kPa, x1 = 0.02192 | 1.705 ± 0.043 mPa·s and 1.705 ± 0.11 mPa·s
298.15 K, 101 kPa, x1 = 0.02766 | 2.05 ± 0.04 mPa·s
298.15 K, 101 kPa, x1 = 0.03404 | 2.49 ± 0.05 mPa·s
298.15 K, 101 kPa, x1 = 0.03935 | 2.947 ± 0.075 mPa·s and 2.947 ± 0.21 mPa·s
298.15 K, 101 kPa, x1 = 0.04479 | 3.49 ± 0.07 mPa·s
298.15 K, 101 kPa, x1 = 0.05103 | 4.36 ± 0.09 mPa·s
298.15 K, 101 kPa, x1 = 0.05234 | 4.57 ± 0.1 mPa·s
298.15 K, 101 kPa, x1 = 0.05329 | 4.71 ± 0.1 mPa·s
298.15 K, 101 kPa, x1 = 0.05449 | 4.95 ± 0.11 mPa·s
298.15 K, 101.33 kPa, x1 = 0.05143 | 2.05 ± 0.058 mPa·s
298.15 K, 101.33 kPa, x1 = 0.05627 | 3.659 ± 0.098 mPa·s
300.15 K, 101 kPa, x1 = 0.05329 | 4.47 ± 0.1 mPa·s
300.15 K, 101 kPa, x1 = 0.05449 | 4.7 ± 0.1 mPa·s
303.15 K, 101 kPa, x1 = 0.007256 | 0.99 ± 0.02 mPa·s
303.15 K, 101 kPa, x1 = 0.01412 | 1.22 ± 0.03 mPa·s
303.15 K, 101 kPa, x1 = 0.02103 | 1.51 ± 0.03 mPa·s
303.15 K, 101 kPa, x1 = 0.02766 | 1.82 ± 0.04 mPa·s
303.15 K, 101 kPa, x1 = 0.03404 | 2.21 ± 0.05 mPa·s
303.15 K, 101 kPa, x1 = 0.04479 | 3.06 ± 0.07 mPa·s
303.15 K, 101 kPa, x1 = 0.05103 | 3.81 ± 0.08 mPa·s
303.15 K, 101 kPa, x1 = 0.05234 | 3.99 ± 0.09 mPa·s
303.15 K, 101 kPa, x1 = 0.05329 | 4.11 ± 0.09 mPa·s
303.15 K, 101 kPa, x1 = 0.05449 | 4.3 ± 0.09 mPa·s
305.15 K, 101 kPa, x1 = 0.05329 | 3.89 ± 0.08 mPa·s
305.15 K, 101 kPa, x1 = 0.05449 | 4.1 ± 0.09 mPa·s
308.15 K, 101 kPa, x1 = 0.05103 | 3.33 ± 0.07 mPa·s
308.15 K, 101 kPa, x1 = 0.05234 | 3.49 ± 0.07 mPa·s
308.15 K, 101 kPa, x1 = 0.05329 | 3.57 ± 0.08 mPa·s
310.15 K, 101 kPa, x1 = 0.05329 | 3.39 ± 0.07 mPa·s
311.15 K, 101 kPa, x1 = 0.05234 | 3.25 ± 0.07 mPa·s
312.15 K, 101 kPa, x1 = 0.05329 | 3.24 ± 0.07 mPa·s
313.15 K, 101 kPa, x1 = 0.007256 | 0.8 ± 0.02 mPa·s
313.15 K, 101 kPa, x1 = 0.01412 | 0.99 ± 0.02 mPa·s
313.15 K, 101 kPa, x1 = 0.02103 | 1.21 ± 0.03 mPa·s
313.15 K, 101 kPa, x1 = 0.02766 | 1.49 ± 0.03 mPa·s
313.15 K, 101 kPa, x1 = 0.03404 | 1.76 ± 0.04 mPa·s
313.15 K, 101 kPa, x1 = 0.04479 | 2.42 ± 0.05 mPa·s
313.15 K, 101 kPa, x1 = 0.05103 | 2.96 ± 0.06 mPa·s
313.15 K, 101 kPa, x1 = 0.05234 | 3.1 ± 0.07 mPa·s
313.15 K, 101 kPa, x1 = 0.05329 | 3.17 ± 0.07 mPa·s
314.15 K, 101 kPa, x1 = 0.05329 | 3.11 ± 0.07 mPa·s
316.15 K, 101 kPa, x1 = 0.05234 | 2.89 ± 0.06 mPa·s
318.15 K, 101 kPa, x1 = 0.05103 | 2.65 ± 0.06 mPa·s
318.15 K, 101 kPa, x1 = 0.05234 | 2.77 ± 0.06 mPa·s
320.15 K, 101 kPa, x1 = 0.05234 | 2.66 ± 0.06 mPa·s
323.15 K, 101 kPa, x1 = 0.00868 | 0.7 ± 0.036 mPa·s
323.15 K, 101 kPa, x1 = 0.02192 | 1.014 ± 0.057 mPa·s
323.15 K, 101 kPa, x1 = 0.03935 | 1.669 ± 0.11 mPa·s
323.15 K, 101 kPa, x1 = 0.05103 | 2.37 ± 0.05 mPa·s
323.15 K, 101 kPa, x1 = 0.05234 | 2.52 ± 0.05 mPa·s
323.15 K, 101.33 kPa, x1 = 0.05088 | 1.378 mPa·s

COC(=O)OC + CC(C)O
101.3 kPa
Conditions | viscosity [mPa·s]
293.15 K, x1 = 0.0526 | 1.968 ± 0.091
293.15 K, x1 = 0.0934 | 1.706 ± 0.079
293.15 K, x1 = 0.2033 | 1.212 ± 0.058
293.15 K, x1 = 0.3129 | 0.943 ± 0.047
293.15 K, x1 = 0.4065 | 0.817 ± 0.042
293.15 K, x1 = 0.5 | 0.74 ± 0.038
293.15 K, x1 = 0.6079 | 0.686 ± 0.036
293.15 K, x1 = 0.7026 | 0.647 ± 0.034
293.15 K, x1 = 0.8048 | 0.609 ± 0.033
293.15 K, x1 = 0.9008 | 0.593 ± 0.032
293.15 K, x1 = 0.9507 | 0.601 ± 0.032
298.15 K, x1 = 0.0498 | 1.733 ± 0.081
298.15 K, x1 = 0.0979 | 1.454 ± 0.069
298.15 K, x1 = 0.2031 | 1.046 ± 0.051
298.15 K, x1 = 0.2999 | 0.844 ± 0.043
298.15 K, x1 = 0.3972 | 0.74 ± 0.038
298.15 K, x1 = 0.4892 | 0.69 ± 0.036
298.15 K, x1 = 0.5938 | 0.654 ± 0.035
298.15 K, x1 = 0.6971 | 0.625 ± 0.033
298.15 K, x1 = 0.7983 | 0.589 ± 0.032
298.15 K, x1 = 0.9012 | 0.567 ± 0.031
298.15 K, x1 = 0.9451 | 0.567 ± 0.031
303.15 K, x1 = 0.0437 | 1.537 ± 0.072
303.15 K, x1 = 0.1028 | 1.287 ± 0.062
303.15 K, x1 = 0.2013 | 0.992 ± 0.049
303.15 K, x1 = 0.3062 | 0.802 ± 0.041
303.15 K, x1 = 0.384 | 0.713 ± 0.037
303.15 K, x1 = 0.4951 | 0.642 ± 0.034
303.15 K, x1 = 0.5998 | 0.606 ± 0.032
303.15 K, x1 = 0.7053 | 0.581 ± 0.031
303.15 K, x1 = 0.8047 | 0.562 ± 0.031
303.15 K, x1 = 0.9062 | 0.545 ± 0.03
303.15 K, x1 = 0.937 | 0.542 ± 0.03
313.15 K, x1 = 0.0507 | 1.147 ± 0.056
313.15 K, x1 = 0.0997 | 1.005 ± 0.05
313.15 K, x1 = 0.1984 | 0.799 ± 0.041
313.15 K, x1 = 0.2975 | 0.668 ± 0.035
313.15 K, x1 = 0.4001 | 0.592 ± 0.032
313.15 K, x1 = 0.4884 | 0.553 ± 0.03
313.15 K, x1 = 0.5959 | 0.522 ± 0.029
313.15 K, x1 = 0.7017 | 0.506 ± 0.028
313.15 K, x1 = 0.8014 | 0.494 ± 0.028
313.15 K, x1 = 0.9053 | 0.49 ± 0.027
313.15 K, x1 = 0.9492 | 0.491 ± 0.028
